From ChEMBL document CHEMBL1201862, “PubChem BioAssay data set” (2004)
Several values for one entry are separate records, joined by “and”; a condition that tells them apart may be missing. Equal values may be shown once.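 Test compounds were applied to cells in 96-well plates for 48 hours at 5 doses. The concentration for 50% growth inhibition is given as GI50.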 Activity calls are given as the source filed them. Rule as the data show it: active = GI50 up to about 1.1 µM and inactive = higher.

Assays:
Assay in all cases: growth of human tumour cells (NCI), 48 h
MOLT-4 = system: MOLT-4
K562 = system: K562
A549 = system: A549
SW-620 = system: SW-620
SF-295 = system: SF-295
LOX IMVI = system: LOX IMVI
UACC-62 = system: UACC-62
NCI-H460 = system: NCI-H460
SK-MEL-5 = system: SK-MEL-5
T47D = system: T47D
MDA-MB-435 = system: MDA-MB-435
COLO 205 = system: COLO 205
MCF7 = system: MCF7
NCI/ADR-RES = system: NCI/ADR-RES
HT-29 = system: HT-29
OVCAR-3 = system: OVCAR-3
CCRF-CEM = system: CCRF-CEM
OVCAR-4 = system: OVCAR-4

SMILES | GI50 (MOLT-4) | GI50 (K562) | GI50 (A549) | GI50 (SW-620) | GI50 (SF-295) | GI50 (LOX IMVI) | GI50 (UACC-62) | GI50 (NCI-H460) | GI50 (SK-MEL-5) | GI50 (T47D) | GI50 (MDA-MB-435) | GI50 (COLO 205) | GI50 (MCF7) | GI50 (NCI/ADR-RES) | GI50 (HT-29) | GI50 (OVCAR-3) | GI50 (CCRF-CEM) | GI50 (OVCAR-4)
Cc1nc2ccc(C(F)(F)F)cc2nc1NCc1ccc(Cl)c(Cl)c1 | 15.6 µM (inactive) | 20.4 µM (inactive) | 16.4 µM (inactive) | 18.9 µM (inactive) | 17.3 µM (inactive) | 15.3 µM (inactive) | 3.28 µM (inactive) | 32.3 µM (inactive) | 19.6 µM (inactive) | 0.735 µM (active) | 17.4 µM (inactive) | 15.4 µM (inactive) | 10 µM (inactive) | 19.9 µM (inactive) | 15 µM (inactive) | 13.3 µM (inactive) | 15.5 µM (inactive) | 
CCCCC(CCCC)=NNC(=S)SC | 18 µM (inactive) | 29.6 µM (inactive) | 26.1 µM (inactive) | 38.9 µM (inactive) |  | 27.3 µM (inactive) | 22 µM (inactive) | 30.3 µM (inactive) | 16.1 µM (inactive) | 20 µM (inactive) | 17.9 µM (inactive) | 36.4 µM (inactive) | 28.6 µM (inactive) | 25.1 µM (inactive) | 33.6 µM (inactive) |  |  | 18.9 µM (inactive)
CCOP(=O)(OCC)C1CC(O)C(=O)N1 (stereo not given) | > 100 µM (inactive) | > 100 µM (inactive) | > 100 µM (inactive) | > 100 µM (inactive) | > 100 µM (inactive) | > 100 µM (inactive) | > 100 µM (inactive) |  | > 100 µM (inactive) |  | > 100 µM (inactive) | > 100 µM (inactive) | > 100 µM (inactive) | > 100 µM (inactive) | > 100 µM (inactive) | > 100 µM (inactive) | > 100 µM (inactive) | > 100 µM (inactive)
CSc1nc(C#N)c(/N=C\N(C)C)n1C | > 100 µM (inactive) | > 100 µM (inactive) | > 100 µM (inactive) | > 100 µM (inactive) | > 100 µM (inactive) | > 100 µM (inactive) | > 100 µM (inactive) | > 100 µM (inactive) | > 100 µM (inactive) | > 100 µM (inactive) | > 100 µM (inactive) | > 100 µM (inactive) |  | > 100 µM (inactive) |  | > 100 µM (inactive) | > 100 µM (inactive) | > 100 µM (inactive)
Cc1ccc(C(=O)OC[C@H]2CC[C@@H](n3cc(N(C)C4CCCCC4)c(=O)[nH]c3=O)O2)cc1 | 30 µM (inactive) | 38 µM (inactive) | 28.7 µM (inactive) | 40 µM (inactive) | 15.7 µM (inactive) | 19.1 µM (inactive) | 29.7 µM (inactive) | 32.7 µM (inactive) | 18.8 µM (inactive) |  | 65.2 µM (inactive) | 19.1 µM (inactive) | 22.1 µM (inactive) | 20 µM (inactive) | 18.5 µM (inactive) | 21.6 µM (inactive) | 27.4 µM (inactive) | 30.9 µM (inactive)
CC(C)OC(=O)[C@@H]1OC(C)(C)O[C@H]1C(=O)OC(C)C | > 100 µM (inactive) | > 100 µM (inactive) | > 100 µM (inactive) | > 100 µM (inactive) | > 100 µM (inactive) | > 100 µM (inactive) | > 100 µM (inactive) | > 100 µM (inactive) | > 100 µM (inactive) | > 100 µM (inactive) | > 100 µM (inactive) | > 100 µM (inactive) | > 100 µM (inactive) | > 100 µM (inactive) | > 100 µM (inactive) |  | > 100 µM (inactive) | > 100 µM (inactive)
COC(=O)CCC(=O)c1ccc2c(c1)CC1(Cc3ccccc3C1)C2 | 17.7 µM (inactive) | 0.218 µM (active) | 54.7 µM (inactive) |  | 38 µM (inactive) | 36.2 µM (inactive) | > 100 µM (inactive) |  | 16.2 µM (inactive) | 39.1 µM (inactive) | 64 µM (inactive) | 29.4 µM (inactive) | 85.5 µM (inactive) | 64 µM (inactive) | 20.1 µM (inactive) | 57.8 µM (inactive) | 16.4 µM (inactive) | 32.1 µM (inactive)
CSC1=N/C(=C\c2cccs2)C(=O)N1CN1CCOCC1 | 34.1 µM (inactive) | 43.8 µM (inactive) | > 100 µM (inactive) | 55 µM (inactive) | > 100 µM (inactive) | 33.1 µM (inactive) | 42.4 µM (inactive) |  | 41.1 µM (inactive) |  | > 100 µM (inactive) | 45.5 µM (inactive) | 32.2 µM (inactive) | 14.3 µM (inactive) | 24.9 µM (inactive) | > 100 µM (inactive) | 27.3 µM (inactive) | 30.6 µM (inactive)
N=C(N)N/N=C/c1c(-c2cc([N+](=O)[O-])c(Cl)cc2Cl)nc2sccn12 | 0.124 µM (active) | 242 nM (active) and 746 nM (active) | 1.82 µM (inactive) and 1.51 µM (inactive) | 435 nM (active) and 1.27 µM (inactive) | 1.56 µM (inactive) and 1.47 µM (inactive) | 130 nM (active) and 1.18 µM (inactive) | 1.56 µM (inactive) and 1.94 µM (inactive) | 1.86 µM (inactive) and 1.73 µM (inactive) | 1.58 µM (inactive) and 1.35 µM (inactive) |  | 332 nM (active) and 1.7 µM (inactive) |  | 1.26 µM (inactive) | > 100 µM (inactive) |  | 1.86 µM (inactive) | 0.714 µM (active) | 1.66 µM (inactive)
O=[N+]([O-])c1cc([N+](=O)[O-])c(Nn2c3ccccc3c3ccccc32)c([N+](=O)[O-])c1 | 0.69 µM (active) | 1.14 µM (inactive) | 2.82 µM (inactive) | 3.02 µM (inactive) | 1.25 µM (inactive) |  | 0.933 µM (active) | 1.86 µM (inactive) | 1.94 µM (inactive) | 0.641 µM (active) | 1.56 µM (inactive) | 2.56 µM (inactive) | 1.25 µM (inactive) | 3.24 µM (inactive) | 0.857 µM (active) |  | 2.16 µM (inactive) | 2.12 µM (inactive)
COc1ccc2[nH]c3c(C)c4ncccc4c(C)c3c2c1 | 4.04 µM (inactive) | 3.68 µM (inactive) | 2.18 µM (inactive) | 1.98 µM (inactive) | 2.43 µM (inactive) |  | > 10 µM (inactive) | 2.12 µM (inactive) | > 10 µM (inactive) | > 10 µM (inactive) | 1.82 µM (inactive) | 6.95 µM (inactive) | 2.02 µM (inactive) | 3.12 µM (inactive) | 2.22 µM (inactive) | 2.71 µM (inactive) | 3.85 µM (inactive) | 7.43 µM (inactive)
S=C(c1c[nH]c2ccccc12)N1CCN(c2ccccc2)CC1 | > 100 µM (inactive) | > 100 µM (inactive) |  | > 100 µM (inactive) | 79.8 µM (inactive) | > 100 µM (inactive) | > 100 µM (inactive) | > 100 µM (inactive) | 80 µM (inactive) |  | > 100 µM (inactive) | > 100 µM (inactive) | > 100 µM (inactive) | 34.9 µM (inactive) | 59.6 µM (inactive) | > 100 µM (inactive) | > 100 µM (inactive) | 
c1ccc2c(c1)nc1n2sc2nc3ccccc3n21 | > 100 µM (inactive) | > 100 µM (inactive) | > 100 µM (inactive) | > 100 µM (inactive) | > 100 µM (inactive) | > 100 µM (inactive) | 51.6 µM (inactive) | > 100 µM (inactive) | > 100 µM (inactive) |  | > 100 µM (inactive) | > 100 µM (inactive) | 35.6 µM (inactive) | > 100 µM (inactive) | > 100 µM (inactive) | > 100 µM (inactive) | > 100 µM (inactive) | > 100 µM (inactive)
C=C1C(=O)O[C@H]2C1C[C@@H](O)[C@@]1(C)OC1CC[C@@]1(C)O[C@H]21 (stereo not given in full) | 5.94 µM (inactive) | 9.33 µM (inactive) | > 100 µM (inactive) | 13.3 µM (inactive) | 99.1 µM (inactive) | 13.2 µM (inactive) | 15.3 µM (inactive) | 57.9 µM (inactive) | 16.1 µM (inactive) |  | 21 µM (inactive) | 11.6 µM (inactive) | 14.8 µM (inactive) | 20.7 µM (inactive) | 32.8 µM (inactive) |  | 5.15 µM (inactive) | 13.9 µM (inactive)
CC1C(O)Oc2cc3c(cc2C1c1ccccc1O)OCO3 (stereo not given) | 19.3 µM (inactive) | 17.6 µM (inactive) | 30.1 µM (inactive) | 39.1 µM (inactive) | 21.2 µM (inactive) | 31.6 µM (inactive) | 29.5 µM (inactive) | 23.4 µM (inactive) | 33.3 µM (inactive) | 30.4 µM (inactive) | 29.9 µM (inactive) | 16.2 µM (inactive) | 38.1 µM (inactive) |  | 23.3 µM (inactive) | 27.8 µM (inactive) | 16.7 µM (inactive) | 
O=C1C2=Cc3ccccc3OC2(O)Oc2cc(O)ccc21 (stereo not given) | > 100 µM (inactive) | > 100 µM (inactive) | > 100 µM (inactive) | > 100 µM (inactive) | > 100 µM (inactive) | > 100 µM (inactive) | > 100 µM (inactive) |  | > 100 µM (inactive) | > 100 µM (inactive) | > 100 µM (inactive) | > 100 µM (inactive) | > 100 µM (inactive) | > 100 µM (inactive) | > 100 µM (inactive) | > 100 µM (inactive) | 27.5 µM (inactive) | 
CCn1c(-c2ccc(OC)cc2)nc2c1C(=O)c1ccccc1C2=O | > 100 µM (inactive) | > 100 µM (inactive) | > 100 µM (inactive) | > 100 µM (inactive) | > 100 µM (inactive) |  | > 100 µM (inactive) | > 100 µM (inactive) | > 100 µM (inactive) | > 100 µM (inactive) | > 100 µM (inactive) | > 100 µM (inactive) | > 100 µM (inactive) | > 100 µM (inactive) | > 100 µM (inactive) | > 100 µM (inactive) | > 100 µM (inactive) | > 100 µM (inactive)
